In data set [1] the test system is p53 wild-type cancer cells (A549, A375, H460). In words: Cell cycle arrest and senescence after ionizing radiation plus M3814. Format: cell-based.
Data set [2] has as its system human PBMC-derived immune cells. In words: Effect of culture media from M3814-induced senescent cells on immune cells (live imaging). Format: cell-based. The protocol:
(§1) These substantial changes in gene expression were built gradually and correlated with the development of senescence phenotype. Several proteins from the induced subset were measured in the cell media (Meso Scale Discovery) and confirmed that they are secreted by senescent cells in the absence of M3814.

The target of another data set is DNA-PK (Homo sapiens, UniProt P78527). In words: Crystallographic and enzyme kinetics studies. Format: biochemical. The text has this: DNA-PK, together with five additional protein factors (Ku70, Ku80, XRCC4, Ligase IV and Artemis) plays a critical role in the repair of DSB via NHEJ. Kinase activity of DNA-PK is essential for proper and timely DNA repair and the long-term survival of cancer cells.

In another data set the test system is A549 and A375 cells. Description: Nanostring PanCancer Immune panel mRNA analysis of IR/M3814 induced senescent cells. Format: cell-based. As for the experimental part: as §1
For data set [3], the system named is murine colon tumor model MC38. Description: M3814 and avelumab in syngeneic MC38 tumor model (Example 1). The following applies: M3814 150 mg/kg orally once daily, avelumab 400 μg/mouse intravenously on days 3, 6 and 9; for median time the tumors needed to double in size as compared to their initial volume at day 0: Kaplan-Meyer evaluation. Format: in vivo, C57BL6/N mice. The text has this: This model allows the use of immunocompetent mice, a necessary requirement to study the T-cell mediated antitumor effect of Avelumab. The experimental set up included the induction of MC38 tumors in C57BL6/N mice by injection of 1×10^6 tumor cells into the right flank of the animals. Tumor growth was followed over time by measuring length and width using a caliper. When tumors were established to an average size of 50-100 mm^3, mice were subdivided in 4 treatment groups with 10 animals each, and treatment started. This day was defined as day 0. Group 1 received vehicle treatment. Group 2 received M3814 orally once daily at 150 mg/kg in a volume of 10 ml/kg. Group 3 received avelumab intravenously once daily at 400 μg/mouse in a volume of 5 ml/kg on days 3, 6 and 9. Group 4 received M3814 orally once daily at 150 mg/kg in a volume of 10 ml/kg and avelumab intravenously once daily at 400 μg/mouse in a volume of 5 ml/kg on days 3, 6 and 9.

For data set [4] the following is noted: 10 mg/kg dose; cited from earlier work.

`COc1ccc([C@@H](O)c2cc(-c3ncnc4cc(N5CCOCC5)ccc34)c(F)cc2Cl)nn1` [Compound M3814, (S)-[2-chloro-4-fluoro-5-(7-morpholin-4-yl-quinazolin-4-yl)-phenyl]-(6-methoxypyridazin-3-yl)-methanol]: in data set [1] (A549 cells, live cell imaging and BrdU labeling), the “reversibility of senescence phenotype following compound removal” value was “not reversible”. Moreover, the “time to typical senescence phenotype (large/flat morphology, β-Gal staining)” value in data set [1] (IR 2-5Gy plus sustained M3814) is recorded as 4-7 days. The “ATM dependent signaling, including CHK2 and p53-dependent cell cycle arrest” value in data set [1] (in the presence of DDSBs) is “enhanced activation of the ATM dependent signaling”. In addition, the “cell cycle arrest in isogenic p53-null cells” value in data set [1] (isogenic p53-null A549 cells, IR plus M3814) is listed as “lost the ability to fully arrest their cell cycle”. Also, the cell cycle effect entry in data set [1] (proliferating p53 wild-type A549, A375, H460, single dose of ionizing radiation (2-5Gy) and sustained exposure to M3814) was “complete cell cycle block”. Further, the “immunomodulatory effect of culture media from M3814-induced senescent cells” value in data set [2] is reported as “increased immunomodulatory effect”. For the same compound, the “inhibition of DNA-PK” value at DNA-PK was “potent and selective ATP-competitive inhibitor”. The “upregulation of eighteen immune response genes compared to controls” value in the data set with A549 and A375 cells is 3-150 fold. For the same compound, in data set [3], the “median time the tumors needed to double in size as compared to their initial volume at day 0” value is on record as 10 days and the “T/C values calculated at day 13” value was 47%.
As for “avelumab: fully human monoclonal antibody of the immunoglobulin (Ig) G1 isotype; selectively binds to PD-L1”, in data set [4], the receptor occupancy result is on record as “excellent receptor occupancy” and the tolerability result was “well tolerated”. For the same compound, in data set [3], the “median time the tumors needed to double in size as compared to their initial volume at day 0” value turned out to be 13 days and the “T/C values calculated at day 13” value is recorded as 60%.

Values taken from US20230272083A1, “COMBINATION OF AN ANTI-PD-L1 ANTIBODY AND A DNA-PK INHIBITOR FOR THE TREATMENT OF CANCER” (Merck Patent GmbH, priority 2017, published 2023).
